According to patent US10612071B2, “Method of measuring the deleterious effects of non-caloric artificial sweeteners on enzymatic hydrolysis of sucrose measured in real time” (California State University, Fresno, priority 2016, dated 2020):
“Also recorded” adds a separate entry of the source.

Tests used:
Type in all cases: biochemical, S. cerevisiae
[1] = molecular target: T1, Invertase (EC 3.2.1.26, β-fructofuranosidase) (Saccharomyces cerevisiae, UniProt P00724); assay: Real-time 1H-NMR (qNMR) progress curve analysis of invertase-catalysed sucrose hydrolysis, Lambert-W fit; settings: for β-anomer of glucose formed: in the presence of sucralose (FIG. 5); for α-anomer of glucose formed: in the presence of sucralose (FIG. 5, 50 mM each)
T1 construct: purchased Sigma-Aldrich
From the text: Equation [5], derived from Equation [2], relates the substrate concentration at any time ([S]) to its initial concentration ([S]0), the Michaelis-Menten kinetic parameters Vmax and KM. Equation [5] is used to fit the real time experimental data obtained for enzyme kinetics using the analysis code written using R-Statistical environment (R Core Team 2014).
(§1) Invertase (EC 3.2.1.26, β-fructofuranosidase, S. cerevisiae) was purchased from Sigma-Aldrich with a specific activity of >300 u/mg of solid (pH 4.6, 303 K).
Two standard samples were made in standard 5 mm NMR tubes to set up the NMR parameter.
All NMR kinetics solutions were made in an Eppendorf tube with a volume of 550 μL prior to adding 100 μL of invertase into the Eppendorf tube then transferring 600 μL of the solution into a NMR tube. The 100 μL invertase solution was added into the Eppendorf tube when the NMR kinetics experiment was ready to start. A timer was set at the beginning of the addition of the invertase solution in order to account for the delay time (the time before the collection of the NMR spectra) as this is a crucial part of the latter calculation.
^1H-NMR time-course data were collected in real time by qNMR (Vairan-Agilent, VNMRS system) and the kinetic data were subsequently processed using a non-linear least square fit procedure by using the Lambert-W function. This method was applied to determine the effect on the enzyme kinetics of hydrolysis, a fundamental step in converting the sucrose to glucose and fructose. Experimental results obtained using the direct real-time measurements were validated using a glucometer based approach.
The spectrometer software is used to find the integration under each peak of the sucrose (5.41 ppm) and TSP (0.0 ppm). The concentration of the sucrose peak is calculated with reference to the known concentration of TSP. If multiple experiments are performed, averages and standard deviations of the integrations of the trials at each temperature is calculated. A two-column excel or text (tab limited format) with X=Time and Y=[S] is produced as the input to the R-program. The written code utilizes the following external libraries: spatstat and gsl (to implement functions such as LambertW function), xtable (for table manipulations) and ggplot2 (to make plots (optional)). The R-code reads the input file and creates a data fit, statistics and plot with the experimental and fitted values. Typically the procedure works with a minimum of 15 time points sampled uniformly over the experimental time period chosen and it utilizes a non-linear least square fitting procedure. In addition to generating a plot (FIG. 10A), the code generates a file in picture format (.png) and a tab-limited text file that can be imported into other plotting routines. The statistical parameters of the fit (FIG. 10B) are also available in a tabular form for reporting purposes, which includes the fitted values (Coef.), standard error of the fit, t-statistics and p-value for each of the parameters. If the signal has not decayed to zero, an additional parameter (FIG. 10B) can be used as an offset.

[2] = molecular target: T1, Invertase (EC 3.2.1.26, β-fructofuranosidase); assay: Glucometer-based Michaelis-Menten kinetics of invertase-catalysed sucrose hydrolysis; settings: for reaction velocity of the sucrose: sucralose 20 mM or lower (FIG. 11)
From the text: as §1

[3] = substrate: OC[C@H]1O[C@@](CO)(O[C@H]2O[C@H](CO)[C@@H](O)[C@H](O)[C@H]2O)[C@@H](O)[C@@H]1O; assay: Real-time 1H-NMR (qNMR) progress curve analysis of invertase-catalysed sucrose hydrolysis, Lambert-W fit; settings: 30.0 °C
[4] = other: Average of three trials, sucrose 42 mM, no sucralose
[5] = other: Trial 1, sucrose 42 mM, no sucralose
[6] = other: Trial 2, sucrose 42 mM, no sucralose
[7] = other: Trial 3, sucrose 42 mM, no sucralose
[8] = other: no sucralose (0 mM), sucrose 40 mM, sucrose:sucralose 1:0

Question: How did the “decrease of the maximal velocity (Vmax)” value ([1]; 1:2 ratio of sucrose:sucralose) turn out when `OC[C@H]1O[C@H](O[C@]2(CCl)O[C@H](CCl)[C@@H](O)[C@@H]2O)[C@H](O)[C@@H](O)[C@H]1Cl` [sucralose] was run?
Answer: Its value is roughly 33%.

Question: And the “enzyme catalytic activity inhibited” value ([1]; 1:2 ratio of sucrose:sucralose)?
Answer: The value was 50%.

Question: And the “increase of the KM value” ([1]; 1:2 ratio of sucrose:sucralose)?
Answer: The value was roughly 50%.

Question: And the “decrease of the maximal velocity (Vmax)” value ([1]; addition of sucralose (50 mM))?
Answer: Its value is 37%.

Question: What about the “β-anomer of glucose formed” value ([1]; after 20 minutes) of the same molecule?
Answer: Its value is “about 7 mM”.

Question: And the sucrose concentration remaining ([1]; after 60 minutes of enzymatic conversion, in the presence of sucralose, starting sucrose 50 mM (FIG. 4))?
Answer: The sucrose concentration remaining was “about 15 mM”.

Question: What about the “β-anomer of glucose formed” value ([1]; after 60 minutes) of the same molecule?
Answer: The value was “about 10 mM”.

Question: And the “α-anomer of glucose formed” value ([1]; after 60 minutes)?
Answer: Its value is “about 22 mM”.

Question: What about the “β-anomer of glucose formed” value ([1]; after 120 minutes) of the same molecule?
Answer: Its value is “about 17 mM”.

Question: What about the “α-anomer of glucose formed” value ([1]; after 120 minutes) of the same molecule?
Answer: The value was “about 22.5 mM”.

Question: And the Vmax ([1]; in the presence of sucralose, FIG. 4 (equimolar sucrose:sucralose, ~50 mM each))?
Answer: Its Vmax is 1.87 µM/min.

Question: And the “decrease of Vmax per unit increase of sucralose” value ([1]; regression line, FIG. 12B)?
Answer: Its value is 6.54 ± 0.03 µM/min.

Question: What about the “decrease of catalytic efficiency of the enzyme per unit increase of sucralose (in mM)” value ([1]; regression line, FIG. 12C) of the same molecule?
Answer: The value was 152.1 mM^2/min.

Question: What about the Vmax ([1]; sucralose 1 mM, sucrose 40 mM (40:1)) of the same molecule?
Answer: The Vmax was 2.71 ± 0.04 µM/min.

Question: What about the Vmax ([1]; sucralose 5 mM, sucrose 40 mM (8:1)) of the same molecule?
Answer: Its Vmax is 2.95 ± 0.04 µM/min.

Question: What about the Vmax ([1]; sucralose 10 mM, sucrose 40 mM (4:1)) of the same molecule?
Answer: Its Vmax is 2.61 ± 0.03 µM/min.

Question: And the Vmax ([1]; sucralose 20 mM, sucrose 40 mM (2:1))?
Answer: Its Vmax is 2.49 ± 0.02 µM/min.

Question: And the Vmax ([1]; sucralose 40 mM, sucrose 40 mM (1:1))?
Answer: Its Vmax is 2.25 ± 0.02 µM/min.

Question: And the “increase of the KM value” ([1]; sucralose 50 mM)?
Answer: The value was “more than 20%”.

Question: What about the “reduction of the enzymatic activity of the invertase” value ([1]; sucralose 50 mM) of the same molecule?
Answer: The value was 20%.

Question: What about the Vmax ([1]; sucralose 60 mM, sucrose 40 mM (1:1.5)) of the same molecule?
Answer: The Vmax was 1.87 ± 0.02 µM/min.

Question: And the Vmax ([1]; sucralose 80 mM, sucrose 40 mM (1:2))?
Answer: The Vmax was 1.72 ± 0.02 µM/min.

Question: And the “conversion of sucralose by enzymatic hydrolysis (invertase)” value ([1]; sucralose concentration during sucrose hydrolysis)?
Answer: Its value is “not affected by enzymatic hydrolysis; also recorded: not converted”.

Question: And the “inhibition (substrate inhibition model curve)” value ([2]; molar ratio of sucrose to sucralose 1:0.25 (FIG. 13))?
Answer: Its value is “more than 50%”.

Question: What about the “reaction velocity of the sucrose” value ([2]; substrate concentration 0.1 M) of the same molecule?
Answer: Its value is “over 0.4 M/min”.

Question: What about the “reaction velocity of the sucrose” value ([2]; substrate concentration about 0.27 M) of the same molecule?
Answer: The value was “over 0.4 M/min”.

Question: Which Vmax ([1]; no sucralose (0 mM), sucrose 40 mM, sucrose:sucralose 1:0) does the source give for `OC[C@H]1O[C@@](CO)(O[C@H]2O[C@H](CO)[C@@H](O)[C@H](O)[C@H]2O)[C@@H](O)[C@@H]1O` [sucrose] here?
Answer: Its Vmax is 2.57 ± 0.03 µM/min.

B1: Invertase (EC 3.2.1.26, β-fructofuranosidase) (Saccharomyces cerevisiae S288C) (protein)
chain: SMTNETSDRPLVHFTPNKGWMNDPNGLWYDEKDAKWHLYFQYNPNDTVWGTPLFWGHATSDDLTNWEDQPIAIAPKRNDSGAFSGSMVVDYNNTSGFFNDTIDPRQRCVAIWTYNTPESEEQYISYSLDGGYTFTEYQKNPVLAANSTQFRDPKVFWYEPSQKWIMTAAKSQDYKIEIYSSDDLKSWKLESAFANEGFLGYQYECPGLIEVPTEQDPSKSYWVMFISINPGAPAGGSFNQYFVGSFNGTHFEAFDNQSRVVDFGKDYYALQTFFNTDPTYGSALGIAWASNWEYSAFVPTNPWRSSMSLVRKFSLNTEYQANPETELINLKAEPILNISNAGPWSRFATNTTLTKANSYNVDLSNSTGTLEFELVYAVNTTQTISKSVFADLSLWFKGLEDPEEYLRMGFEVSASSFFLDRGNSKVKFVKENPYFTNRMSVNNQPFKSENDLSYYKVYGLLDQNILELYFNDGDVVSTNTYFMTTGNALGSVNMTTGVDNLFYIDKFQVREVK
notes: purchased Sigma-Aldrich
Question: Which Km [3, 4] does the source give for B1 here?
Answer: The Km was 38.57 ± 3.72 mM.

Question: What about the Vmax [3, 4] of the same molecule?
Answer: The Vmax was 2.54 ± 0.18 µM/min.

Question: And the Km [3, 5]?
Answer: Its Km is 34.69 ± 3.96 mM.

Question: And the Vmax [3, 5]?
Answer: The Vmax was 2.34 ± 0.18 µM/min.

Question: What about the Km [3, 6] of the same molecule?
Answer: The Km was 43.59 ± 11.90 mM.

Question: And the Vmax [3, 6]?
Answer: Its Vmax is 2.77 ± 0.54 µM/min.

Question: What about the Km [3, 7] of the same molecule?
Answer: The Km was 37.44 ± 7.79 mM.

Question: And the Vmax [3, 7]?
Answer: The Vmax was 2.51 ± 0.36 µM/min.

Question: And the Km [3, 8]?
Answer: Its Km is 50.60 mM.

Question: And the Vmax [3, 8]?
Answer: Its Vmax is 2.57 ± 0.03 µM/min.
